In ChEMBL document CHEMBL4414648, “Novel Benzohydroxamate-Based Potent and Selective Histone Deacetylase 6 (HDAC6) Inhibitors Bearing a Pentaheterocyclic Scaffold: Design, Synthesis, and Biological Evaluation” (J Med Chem, 2019):
Values belong to the molecule of their own block, whether it stands above or below them. Calls of active or inactive are those of the source. No cut-off for these calls is given here.

Tests used:
[1] = molecular target: T1, Protein deacetylase HDAC6 (Homo sapiens, UniProt Q9UBN7); assay: biochemical
T1 sequence (Q9UBN7 whole entry): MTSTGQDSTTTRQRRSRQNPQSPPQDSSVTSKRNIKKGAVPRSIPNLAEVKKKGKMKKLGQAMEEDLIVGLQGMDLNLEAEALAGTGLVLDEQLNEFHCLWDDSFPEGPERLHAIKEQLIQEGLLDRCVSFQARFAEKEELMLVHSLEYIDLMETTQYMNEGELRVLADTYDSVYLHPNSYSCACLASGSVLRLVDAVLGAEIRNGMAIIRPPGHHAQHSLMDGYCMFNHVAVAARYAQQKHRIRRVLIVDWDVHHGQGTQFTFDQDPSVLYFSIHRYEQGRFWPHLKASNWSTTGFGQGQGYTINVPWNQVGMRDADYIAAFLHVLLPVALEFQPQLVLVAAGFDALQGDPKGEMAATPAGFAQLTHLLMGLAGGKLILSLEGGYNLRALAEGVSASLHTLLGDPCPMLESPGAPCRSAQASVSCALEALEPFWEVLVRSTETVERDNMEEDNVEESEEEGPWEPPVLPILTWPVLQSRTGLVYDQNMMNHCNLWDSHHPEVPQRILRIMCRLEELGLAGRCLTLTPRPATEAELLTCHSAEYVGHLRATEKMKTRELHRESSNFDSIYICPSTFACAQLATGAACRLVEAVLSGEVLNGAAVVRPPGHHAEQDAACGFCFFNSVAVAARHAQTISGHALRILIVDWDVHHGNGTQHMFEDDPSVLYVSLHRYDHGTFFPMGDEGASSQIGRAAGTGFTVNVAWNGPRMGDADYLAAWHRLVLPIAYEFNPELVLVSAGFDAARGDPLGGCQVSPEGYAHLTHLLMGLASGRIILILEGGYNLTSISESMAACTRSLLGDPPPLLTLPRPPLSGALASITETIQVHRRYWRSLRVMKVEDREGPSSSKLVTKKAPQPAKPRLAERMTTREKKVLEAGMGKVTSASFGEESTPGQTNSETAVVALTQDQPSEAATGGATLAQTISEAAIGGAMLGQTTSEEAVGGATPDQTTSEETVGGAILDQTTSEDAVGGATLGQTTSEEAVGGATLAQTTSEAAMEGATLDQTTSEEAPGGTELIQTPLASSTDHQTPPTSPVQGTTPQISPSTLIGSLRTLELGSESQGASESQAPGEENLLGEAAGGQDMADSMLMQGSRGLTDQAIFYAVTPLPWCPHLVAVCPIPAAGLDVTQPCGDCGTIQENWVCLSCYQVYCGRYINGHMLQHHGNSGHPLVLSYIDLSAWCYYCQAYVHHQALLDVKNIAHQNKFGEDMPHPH

[2] = molecular target: Histone deacetylase 3/Nuclear receptor corepressor 2 (HDAC3/NCoR2) (Homo sapiens, UniProt O15379); assay: Inhibition of C-terminal His-tagged human HDAC3 (1 to 428 residues)/N-terminal GST tagged human NCOR2 (395 to 489) expressed in baculovirus infected sf9 insect cells pretreated with compound followed by Fluor de Lys deacetylase substrate addition by fluorescence method
[3] = Drug level in C57BL/6 mouse plasma at 30 mg/kg, ip measured after 24 hrs; type: ADME, organism-based; settings: in vivo, BLD = below limit of detection
[4] = Toxicity in C57BL/6 mouse assessed as effect on spasms up to 50 mg/kg, ip administered for 5 days/week for two cycles and measured daily starting from day 1; type: organism-based; settings: in vivo, 120 h
[5] = Toxicity in C57BL/6 mouse assessed as inactivity/hyperactivity up to 50 mg/kg, ip administered for 5 days/week for two cycles and measured daily starting from day 1; type: organism-based; settings: in vivo, 120 h
[6] = Stability in human liver S9 fraction assessed as parent compound remaining at 5 uM after 90 mins in presence of NADPH by LC-MS/MS analysis; type: ADME, subcellular; settings: read-out: Stability
[7] = Toxicity in C57BL/6 mouse assessed as effect on platelet level at 30 mg/kg, ip administered for 5 days/week for two cycles and measured 60 mins post last dose by cell counter method relative to control; type: organism-based; settings: in vivo, 1 h
[8] = Total clearance in CD-1 mouse at […], iv measured within 6 hrs by LC-MS/MS analysis; type: ADME, organism-based; settings: in vivo
[9] = Toxicity in C57BL/6 mouse assessed as effect on stool up to 50 mg/kg, ip administered for 5 days/week for two cycles and measured daily starting from day 1; type: organism-based; settings: in vivo, 120 h
[10] = Oral bioavailability in rat; type: ADME, organism-based; settings: in vivo
[11] = Toxicity in C57BL/6 mouse assessed as effect on postural changes up to 50 mg/kg, ip administered for 5 days/week for two cycles and measured daily starting from day 1; type: organism-based; settings: in vivo, 120 h
[12] = Toxicity in C57BL/6 mouse assessed as effect on WBC level at 10 mg/kg, ip administered for 5 days/week for two cycles and measured 60 mins post last dose by beckman coulter counting method relative to control; type: organism-based; settings: in vivo, 1 h
[13] = Stability in rat liver S9 fraction assessed as parent compound remaining at 5 uM after 90 mins in presence of NADPH by LC-MS/MS analysis; type: ADME, subcellular; settings: read-out: Stability
[14] = Toxicity in C57BL/6 mouse assessed as effect on platelet level at 10 mg/kg, ip administered for 5 days/week for two cycles and measured 60 mins post last dose by cell counter method relative to control; type: organism-based; settings: in vivo, 1 h
[15] = system: PBMC; assay: Cytotoxicity against human PBMC cells after 72 hrs by CellTiter 96 aqueous one solution assay; type: cell-based
[16] = Toxicity in C57BL/6 mouse assessed as effect on platelet level at 50 mg/kg, ip administered for 5 days/week for two cycles and measured 60 mins post last dose by cell counter method relative to control; type: organism-based; settings: in vivo, 1 h
[17] = Stability in rat plasma assessed as parent compound remaining at 100 uM after 4 hrs by LC-MS/MS analysis; type: ADME, cell-free; settings: read-out: Stability
[18] = Oral bioavailability in dog; type: ADME, organism-based, Canis lupus familiaris; settings: in vivo
[19] = Toxicity in C57BL/6 mouse assessed as effect on WBC level at 50 mg/kg, ip administered for 5 days/week for two cycles and measured 60 mins post last dose by beckman coulter counting method relative to control; type: organism-based; settings: in vivo, 1 h
[20] = Terminal half life in CD-1 mouse at […], iv measured within 6 hrs by LC-MS/MS analysis; type: ADME, organism-based; settings: in vivo, read-out: beta t1/2 (converted)
[21] = Toxicity in C57BL/6 mouse assessed as induction of kyphosis up to 50 mg/kg, ip administered for 5 days/week for two cycles and measured daily starting from day 1; type: organism-based; settings: in vivo, 120 h
[22] = Toxicity in C57BL/6 mouse assessed as effect on grooming up to 50 mg/kg, ip administered for 5 days/week for two cycles; type: organism-based; settings: in vivo, 120 h
[23] = Cmax in CD-1 mouse at 5.2 mg/kg, po measured within 6 hrs by LC-MS/MS analysis; type: ADME, organism-based; design: dose 5.2 mg/kg, route oral; settings: in vivo
[24] = Tmax in CD-1 mouse at 5.2 mg/kg, po measured within 6 hrs by LC-MS/MS analysis; type: ADME, organism-based; settings: in vivo
[25] = Toxicity in C57BL/6 mouse assessed as effect on WBC level at 30 mg/kg, ip administered for 5 days/week for two cycles and measured 60 mins post last dose by beckman coulter counting method relative to control; type: organism-based; settings: in vivo, 1 h
[26] = Toxicity in C57BL/6 mouse assessed as effect on body weight at 30 mg/kg, ip administered for 5 days/week for two cycles and measured every other day relative to control; type: organism-based; settings: in vivo, 120 h
[27] = Total AUC in CD-1 mouse at 5.2 mg/kg, po measured within 6 hrs by LC-MS/MS analysis; type: ADME, organism-based; design: dose 5.2 mg/kg, route oral, time AUCmax; settings: in vivo
[28] = Toxicity in C57BL/6 mouse assessed as effect on body temperature up to 50 mg/kg, ip administered for 5 days/week for two cycles and measured daily starting from day 1; type: organism-based; settings: in vivo, 120 h
[29] = Toxicity in C57BL/6 mouse assessed as effect on body weight at 50 mg/kg, ip administered for 5 days/week for two cycles and measured every other day relative to control; type: organism-based; settings: in vivo, 120 h
[30] = Drug level in CD-1 mouse at […], iv measured after 5 mins by LC-MS/MS analysis; type: ADME, organism-based; settings: in vivo, read-out: Drug uptake
[31] = Stability in human plasma assessed as parent compound remaining at 100 uM after 4 hrs by LC-MS/MS analysis; type: ADME, cell-free; settings: read-out: Stability
[32] = Oral bioavailability in CD-1 mouse at 5.2 mg/kg measured within 6 hrs by LC-MS/MS analysis; type: ADME, organism-based; settings: in vivo
[33] = system: 697; assay: Cytotoxicity against human 697 cells after 48 hrs by CellTiter 96 aqueous one solution assay; type: cell-based; settings: Homo sapiens, 697, 48 h
[34] = Toxicity in C57BL/6 mouse assessed as induction of piloerection up to 50 mg/kg, ip administered for 5 days/week for two cycles and measured daily starting from day 1; type: organism-based; settings: in vivo, 120 h
[35] = Toxicity in C57BL/6 mouse assessed as induction of leukopenia up to 50 mg/kg, ip administered for 5 days/week for two cycles; type: organism-based; settings: in vivo, 120 h
[36] = Toxicity in ip dosed C57BL/6 mouse administered for 5 days/week for two cycles; type: organism-based; settings: in vivo
[37] = Toxicity in C57BL/6 mouse assessed as effect on social behavior up to 50 mg/kg, ip administered for 5 days/week for two cycles; type: organism-based; settings: in vivo, 120 h
[38] = system: Mus musculus; assay: In vivo inhibition of HDAC6 in C57BL/6 mouse assessed as increase in acetylated tubulin level in spleen cytosolic protein extract at 30 mg/kg, ip measured after 24 hrs by ELISA; type: functional, organism-based
[39] = Apparent volume of distribution at steady state in CD-1 mouse at […], iv measured within 6 hrs by LC-MS/MS analysis; type: ADME, organism-based; settings: in vivo, read-out: Vdss(app)
[40] = Toxicity in C57BL/6 mouse assessed as effect on body weight at 10 mg/kg, ip administered for 5 days/week for two cycles and measured every other day relative to control; type: organism-based; settings: in vivo, 120 h
[41] = Toxicity in C57BL/6 mouse assessed as induction of diarrhea up to 50 mg/kg, ip administered for 5 days/week for two cycles and measured daily starting from day 1; type: organism-based; settings: in vivo, 120 h

Sequence of Histone deacetylase 3/Nuclear receptor corepressor 2 (HDAC3/NCoR2) (O15379 whole entry, the tested form may be a part): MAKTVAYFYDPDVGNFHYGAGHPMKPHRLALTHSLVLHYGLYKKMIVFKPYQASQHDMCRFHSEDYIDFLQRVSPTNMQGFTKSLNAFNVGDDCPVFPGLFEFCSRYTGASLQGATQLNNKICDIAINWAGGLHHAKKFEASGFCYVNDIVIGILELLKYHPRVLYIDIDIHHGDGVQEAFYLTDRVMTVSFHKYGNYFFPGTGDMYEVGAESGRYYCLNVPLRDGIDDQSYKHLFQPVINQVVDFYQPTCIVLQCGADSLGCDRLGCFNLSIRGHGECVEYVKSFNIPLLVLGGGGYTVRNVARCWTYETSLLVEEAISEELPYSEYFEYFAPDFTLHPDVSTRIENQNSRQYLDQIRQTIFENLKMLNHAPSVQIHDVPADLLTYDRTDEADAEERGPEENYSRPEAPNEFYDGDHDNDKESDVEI
Sequence of Histone deacetylase 3/Nuclear receptor corepressor 2 (HDAC3/NCoR2) (Q9Y618 whole entry, further chain, the tested form may be a part): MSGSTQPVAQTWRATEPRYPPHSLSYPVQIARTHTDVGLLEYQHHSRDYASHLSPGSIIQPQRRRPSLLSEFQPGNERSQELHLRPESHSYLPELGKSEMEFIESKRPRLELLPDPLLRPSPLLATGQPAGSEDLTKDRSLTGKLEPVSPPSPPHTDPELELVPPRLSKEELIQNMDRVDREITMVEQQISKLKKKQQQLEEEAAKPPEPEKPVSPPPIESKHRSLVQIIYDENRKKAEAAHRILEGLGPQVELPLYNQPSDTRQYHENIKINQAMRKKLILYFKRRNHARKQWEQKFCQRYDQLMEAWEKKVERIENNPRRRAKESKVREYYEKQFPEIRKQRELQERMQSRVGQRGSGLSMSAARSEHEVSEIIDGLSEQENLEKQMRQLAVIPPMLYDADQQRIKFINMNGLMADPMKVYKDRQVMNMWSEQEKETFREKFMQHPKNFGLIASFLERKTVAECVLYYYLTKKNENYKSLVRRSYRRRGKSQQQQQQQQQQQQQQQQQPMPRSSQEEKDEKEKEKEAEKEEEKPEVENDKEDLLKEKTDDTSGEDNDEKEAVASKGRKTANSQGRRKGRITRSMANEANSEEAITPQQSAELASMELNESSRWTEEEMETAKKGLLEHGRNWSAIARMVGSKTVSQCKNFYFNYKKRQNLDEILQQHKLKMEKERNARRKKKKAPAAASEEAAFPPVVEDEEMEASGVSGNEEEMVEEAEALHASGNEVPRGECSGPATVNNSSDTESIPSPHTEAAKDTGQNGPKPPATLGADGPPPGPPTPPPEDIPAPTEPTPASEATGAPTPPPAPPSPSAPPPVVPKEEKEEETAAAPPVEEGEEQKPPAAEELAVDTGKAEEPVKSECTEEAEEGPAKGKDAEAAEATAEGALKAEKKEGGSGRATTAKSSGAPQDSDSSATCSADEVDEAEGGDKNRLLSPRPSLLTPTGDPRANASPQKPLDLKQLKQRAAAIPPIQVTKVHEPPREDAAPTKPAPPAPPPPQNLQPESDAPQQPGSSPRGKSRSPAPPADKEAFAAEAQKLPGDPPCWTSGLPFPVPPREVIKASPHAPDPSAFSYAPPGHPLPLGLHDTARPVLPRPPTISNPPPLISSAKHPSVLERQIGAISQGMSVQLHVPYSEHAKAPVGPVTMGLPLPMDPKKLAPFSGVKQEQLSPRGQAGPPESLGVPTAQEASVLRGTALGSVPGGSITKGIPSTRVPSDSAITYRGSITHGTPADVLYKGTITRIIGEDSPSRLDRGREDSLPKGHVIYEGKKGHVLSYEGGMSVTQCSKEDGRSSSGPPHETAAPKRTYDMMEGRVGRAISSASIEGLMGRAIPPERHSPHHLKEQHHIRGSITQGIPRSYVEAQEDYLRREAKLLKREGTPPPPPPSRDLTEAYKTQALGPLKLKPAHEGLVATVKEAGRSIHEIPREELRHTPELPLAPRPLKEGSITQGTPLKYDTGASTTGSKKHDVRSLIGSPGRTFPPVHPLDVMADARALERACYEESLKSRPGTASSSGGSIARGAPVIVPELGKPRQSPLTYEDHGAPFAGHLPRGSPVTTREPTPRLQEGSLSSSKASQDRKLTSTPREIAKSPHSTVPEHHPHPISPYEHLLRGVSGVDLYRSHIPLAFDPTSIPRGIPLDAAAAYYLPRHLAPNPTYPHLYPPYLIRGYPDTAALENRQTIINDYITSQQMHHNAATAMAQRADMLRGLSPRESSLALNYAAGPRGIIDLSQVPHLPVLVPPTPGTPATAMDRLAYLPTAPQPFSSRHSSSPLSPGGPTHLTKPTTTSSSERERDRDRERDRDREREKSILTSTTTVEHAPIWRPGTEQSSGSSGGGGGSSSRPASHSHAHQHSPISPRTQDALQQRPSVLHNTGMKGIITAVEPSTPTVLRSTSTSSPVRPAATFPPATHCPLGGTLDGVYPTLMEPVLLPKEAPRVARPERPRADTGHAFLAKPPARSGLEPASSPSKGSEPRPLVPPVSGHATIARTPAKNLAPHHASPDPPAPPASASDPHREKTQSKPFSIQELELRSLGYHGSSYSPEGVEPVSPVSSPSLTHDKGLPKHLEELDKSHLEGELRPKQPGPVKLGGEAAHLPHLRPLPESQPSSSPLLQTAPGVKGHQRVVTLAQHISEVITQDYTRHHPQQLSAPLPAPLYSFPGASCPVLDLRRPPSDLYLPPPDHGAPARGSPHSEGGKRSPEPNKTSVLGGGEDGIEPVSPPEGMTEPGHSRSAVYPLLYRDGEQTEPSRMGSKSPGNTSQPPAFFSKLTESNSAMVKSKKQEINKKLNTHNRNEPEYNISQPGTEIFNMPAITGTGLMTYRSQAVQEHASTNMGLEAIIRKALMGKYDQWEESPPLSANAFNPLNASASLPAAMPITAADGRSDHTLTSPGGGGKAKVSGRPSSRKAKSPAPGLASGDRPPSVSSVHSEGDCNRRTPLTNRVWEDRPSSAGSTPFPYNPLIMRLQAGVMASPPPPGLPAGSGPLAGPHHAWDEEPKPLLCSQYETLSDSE

IC50 [1]: 2370 nM
IC50 [2]: 71600 nM
SMILES: O=C(NO)c1ccccc1 [BENZOHYDROXAMATE]

SMILES: O=C(NO)c1ccc(Cn2nnnc2-c2cccs2)cc1
Drug uptake [3]: Bld
Activity [4]: Non-Toxic
Activity [5]: Non-Toxic
remaining at […], 5 µM [6]: 100%
Activity [7]: -7%
clearance at 6 h [8]: 172 mL/min/kg
Activity [9]: Non-Toxic
bioavailability [10]: 25%
Activity [11]: Non-Toxic
Activity [12]: -4%
remaining at […], 5 µM [13]: 82%
Activity [14]: -5%
IC50 [15]: > 1000 nM
Activity [16]: -1%
remaining at 4 h, 100 µM [17]: 62%
bioavailability [18]: 16%
Activity [19]: -15%
half-life at 6 h [20]: 60 min
Activity [21]: Non-Toxic
Activity [22]: Non-Toxic
Cmax [23]: 238 ng/mL
Tmax [24]: 4.8 min
Activity [25]: -11%
Activity [26]: 3.5%
AUC at 6 h [27]: 94 ng·h/mL
Activity [28]: Non-Toxic
Activity [29]: 1.4%
concentration at 5 min [30]: 685 ng/mL
remaining at 4 h, 100 µM [31]: 91%
bioavailability [32]: 19%
IC50 [33]: > 1000 nM
Activity [34]: Non-Toxic
Activity [35]: Non-Toxic
MTD at 120 h [36]: > 50 mg/kg
Activity [37]: Non-Toxic
inhibition [38]: Active
Vd at 6 h [39]: 4.8 L/kg
Activity [40]: 2.2%
Activity [41]: Non-Toxic
